In US5047433A, “N-alkyl derivatives of 2-amino-6,7-dimethoxy tetraline and pharmaceutical compositions having antihypertensive activity containing same” (Sigma-Tau Industrie Farmaceutiche Riunite S.p.A., priority 1986, dated 1991):
Counter-ions that a name gives are not always drawn. Like-named read-outs stand apart in the source and are kept apart here.

Assays:
[1] = test system: Hypertensive SHR rats; assay: Non-invasive measure of arterial pressure in genetically hypertensive (SHR) rats; format: in vivo, rat (male SHR); settings: oral, 40 mg/kg
Description: Male SHR rats (Charles River) of 4-6 months were used in this test. The compounds listed were dissolved in either 0.9% saline or twice distilled water and administered via the oral route (10-40 mg/5 ml/kg).
The animals, housed in individual cages at 23° C. and 60% humidity, had free access to food and drinking water. A BP recorder (Letica) equipped with a two-way polygraph was used. The systolic and diastolic pressure and the heart rate were recorded. The animals, a few days before the test began, were accustomed to be constrained on a heating plate (at 38° C.±1° C. for 20 minutes).
During the pre-tests, assessments were made at time 0 (8^30 -9^30 a.m.) and after 2 and 4 hours.
Every assessment was the average of 3-5 measures and the maximum residence time of the animal in the thermostatized chamber (for the whole test duration) was 40 minutes; the time interval between administrations of different doses of the same compound was 3 days.
(§1) Student's "t" test was used for assessing the differences with respect to the control group and its own 0 time.

[2] = Tolerability in mice (oral and intravenous); set-up: species or system mouse (Male Albino Swiss); settings: mouse, in vivo, monitored 7 days
Description: Male Albino Swiss mice weighing 22-24 g were used in this test.
One group of animals (4/does) which had been kept fasting for 18 hours was orally administered the compounds dissolved in twice distilled water. The same compounds dissolved in saline at pH-7 were intravenously injected in a further group of animals which had free access to food and drinking water. All of the animals were monitored for 7 days.

[3] = LD50 in mice (intravenous); settings: mouse, in vivo, Weil's method
Description: LD50 was assessed according to the Carrol S. Weil's method (Biometrics, pages 249-263 (1952)) on male Albino Swiss mice weighing 22-24 g. The compounds dissolved in […] solution were administered via the intravenous route.

[4] = test system: Normotensive cats; assay: Measure of arterial pressure in normotensive cats; format: in vivo, cat; settings: anesthetized cats, crural vein
Description: Normotensive cats of either sex weighing 2.5-3.5 kgs were used in this test.
The animals fasted for 18 hours were anesthetized with Na Nembutal (30 mg/kg) and ethyl urethane (300 mg/kg i.p.). The crural vein and artery of the animals were cannulated, the former for administering the compounds, the latter for monitoring the arterial pressure. The arterial pressure was measured via a mercury gauge connected to a rotating kymograph.
The compounds were dissolved in sterile 0.9% saline and administered at physiological pH in a 0.5 ml/kg volume.

[5] = test system: Hypertensive DOCA rats; assay: Non-invasive measure of arterial pressure in rats made hypertensive (DOCA); format: in vivo, rat (male Wistar); settings: oral, 40 mg/kg, 2-4 hours
Description: Male Wistar rats (Charles River) of 4 months were used in this test.
The compounds listed were solubilized in twice distilled water and administered via the oral route (40 mg/5 ml/kg).
The animals, housed in individual cages at 23° C. and 60% humidity, had free access to food and were made to drink 1% saline solution. The animals were administered 20 mg/kg s.c. of deoxycorticosterone acetate (DOCA) for 14 days on end.
A BP recorder (Letica) equipped with a two-way polygraph was used. The systolic and diastolic pressure, and the heart rate were recorded. The animals, a few days before the test began, were accustomed to be constrained on a heating plate (at 38° C.±1° C. for 20 minutes).
During the pre-test, assessments were made at time 0 (8^30 -9^30 a.m.) and after 2 and 4 hours.
Every assessment was the average of 3-5 measures and the maximum residence time of animal in the thermostatized chamber (for the whole test duration) was 40 minutes; the time interval between administrations of different doses of the same compound was 3 days.
as §1

[6] = test system: Normotensive cats; assay: Measure of arterial pressure in normotensive cats; format: in vivo, cat; settings: dose 40 mg (os); entry (1)
[7] = intravenous, read-out: Tolerability, i.v.
[8] = oral, fasted 18 hours, read-out: Tolerability, os

Structure (SMILES)	MTD at 168 h [2, 7] [mg/kg]	MTD at 168 h [2, 8] [mg/kg]	LD50 [3] [mg/kg]	other results
COc1cc2c(cc1OC)CC(NCC(O)c1ccc(O)cc1)CC2 (stereo not shown) [ST 558, 2-[(N-2-p-hydroxyphenyl-2-ethanol)amino]-6,7-dimethoxy tetraline hydrochloride]	> 50	> 50	–	Arterial pressure in hypertensive SHR rats ([1]; 3 hours): -13 mm Hg; Arterial pressure in hypertensive SHR rats ([1]; 5 hours): -31 mm Hg
COc1cc2c(cc1OC)CC(NCC(O)c1ccc(C)cc1)CC2 (stereo not shown) [ST 563, 2-[(N-2-p-methylphenyl-2-ethanol)amino]-6,7-dimethoxy tetraline]	> 20	> 50	35.7	Arterial pressure in hypertensive SHR rats ([1]; 2 hours): -65 mm Hg
COc1ccc(C(O)CN(CC2CC2)C2CCc3cc(OC)c(OC)cc3C2)cc1 (stereo not shown) [ST 565, 2-[(N-methylcyclopropyl, N-p-methoxy-phenyl-2-ethanol)amino]-6,7-dimethoxy tetraline hydrochloride]	–	> 50	–	–
CCCN(CC(O)c1ccccc1)C1CCc2cc(OC)c(OC)cc2C1 (stereo not shown) [ST 566, 2-[(N-propyl,N-phenyl-2-ethanol)amino]-6,7-dimethoxy tetraline hydrochloride]	> 20	> 50	–	–
COc1cc2c(cc1OC)CC(N(CC1CC1)CC(O)c1ccccc1)CC2 (stereo not shown) [ST 567, 2-[(N-methylcyclopropyl, N-phenyl-2-ethanol)amino]-6,7-dimethoxy tetraline hydrochloride]	> 15	> 50	30.2	–
CCN(CC(O)c1ccccc1)C1CCc2cc(OC)c(OC)cc2C1 (stereo not shown) [ST 570, 2-[(N-ethyl, N-2-phenyl-2-ethanol)amino]-6,7-dimethoxy tetraline hydrochloride]	> 20	> 50	34.9	Arterial pressure in hypertensive SHR rats ([1]; 2 hours): -29 mm Hg; Arterial pressure in normotensive cats, hypotension ([4]; dose 1 mg/kg): 64 mm Hg; Times of effect duration (hypotension in normotensive cats) ([4]; dose 1 mg/kg): L (long >30 minutes)
CCCN(CC(O)c1ccc(C)cc1)C1CCc2cc(OC)c(OC)cc2C1 (stereo not shown) [ST 571, 2-[(N-propyl,N-2-p-methylphenyl-2-ethanol)amino]-6,7-dimethoxy tetraline hydrochloride]	> 30	> 50	42.3	Times of effect duration (hypotension in normotensive cats) ([4]; dose 1-2-4 mg/kg): M/B
COc1cc2c(cc1OC)CC(N(CC1CC1)CC(O)c1ccc(C)cc1)CC2 (stereo not shown) [ST 574, 2-[(N-methylcyclopropyl, N-p-methylphenyl-2-ethanol)amino]-6,7-dimethoxy tetraline hydrochloride]	> 30	> 50	–	Times of effect duration (hypotension in normotensive cats) ([4]; dose 1-2-4 mg/kg): M/B
CCN(CCc1ccccc1)C1CCc2cc(OC)c(OC)cc2C1 (stereo not shown) [ST 577, 2-[(N-ethyl, N-2-phenylethyl)amino]-6,7-dimethoxy tetraline hydrochloride]	> 20	> 50	35.7	Arterial pressure in normotensive cats, hypotension ([4]; dose 1 mg/kg): 20 mm Hg; Times of effect duration (hypotension in normotensive cats) ([4]; dose 1 mg/kg): L (long >30 minutes); Arterial pressure in normotensive cats, hypotension ([4]; dose 2 mg/kg): 44 mm Hg; Times of effect duration (hypotension in normotensive cats) ([4]; dose 2 mg/kg): M (average ≤30 minutes)
COc1ccc(C(O)CNC2CCc3cc(OC)c(OC)cc3C2)cc1 (stereo not shown) [ST 578, 2-[(N-2-p-methoxyphenyl-2-ethanol)amino]-6,7-dimethoxy tetraline hydrochloride]	> 15	> 50	27.7	Arterial pressure in hypertensive SHR rats ([1]; 3 hours): -40 mm Hg; Arterial pressure in hypertensive SHR rats ([1]; 5 hours): -27 mm Hg; Times of effect duration (hypotension in normotensive cats) ([4]; dose 1-2-4 mg/kg): B/L
COc1cc2c(cc1OC)CC(NCC(O)c1ccccc1)CC2 (stereo not shown) [ST 579, 2-[(N-2-phenyl-2-ethanol)amino]-6,7-dimethoxy tetraline hydrochloride]	> 20	> 50	35.7	Arterial pressure in hypertensive SHR rats ([1]; 2 hours): -26 mm Hg; Arterial pressure in hypertensive DOCA rats [5]: -20 mm Hg
COc1cc2c(cc1OC)CC(NCC(O)c1ccc(C(F)(F)F)cc1)CC2 (stereo not shown) [ST 590, 2-[(N-2-p-trifluoromethylphenyl-2-ethanol)amino]6,7-dimethoxy tetraline hydrochloride]	> 50	> 50	–	Arterial pressure in normotensive cats, hypotension [6]: 39 mm Hg; Times of effect duration (hypotension in normotensive cats) [6]: L (long >30 minutes)
CCN(CC(O)c1ccc(C(F)(F)F)cc1)C1CCc2cc(OC)c(OC)cc2C1 (stereo not shown) [ST 592, 2-[(N-ethyl, N-2-p-trifluoromethylphenyl-2-ethanol)-amino]-6,7-dimethoxy tetraline hydrochloride]	> 30	> 50	–	–
COc1cc2c(cc1OC)CC(NCC(O)c1ccc(F)cc1)CC2 (stereo not shown) [ST 593, 2-[(N-2-p-fluorophenyl-2-ethanol)amino]-6,7-dimethoxy tetraline hydrochloride]	> 50	> 50	–	Arterial pressure in normotensive cats, hypotension ([4]; dose 1 mg/kg): 12 mm Hg; Arterial pressure in normotensive cats, hypotension ([4]; dose 2 mg/kg): 16 mm Hg; Arterial pressure in normotensive cats, hypotension ([4]; dose 4 mg/kg): 26 mm Hg; Times of effect duration (hypotension in normotensive cats) ([4]; dose 1-2-4 mg/kg): M/B
COc1cc2c(cc1OC)CC(NCC(OC)c1ccccc1)CC2 (stereo not shown) [ST 600, 2-[(N-2-phenyl-2-methoxyethyl)amino]-6,7-dimethoxy tetraline hydrochloride]	> 20	> 50	29.7	Arterial pressure in normotensive cats, hypotension ([4]; dose 2 mg/kg): 28 mm Hg; Times of effect duration (hypotension in normotensive cats) ([4]; dose 2 mg/kg): B (short <5 minutes); Arterial pressure in normotensive cats, hypotension ([4]; dose 4 mg/kg): 54 mm Hg; Times of effect duration (hypotension in normotensive cats) ([4]; dose 4 mg/kg): M (average ≤30 minutes)
